Data as given in US6362396B1, “Chimeric gene for the transformation of plants” (Aventis Crop Science, priority 1992, dated 2002).

Key:
[1] = test system: Spring colzas, Westar cultivar; assay: Greenhouse glyphosate treatment of transformed spring colza; type: in vivo; conditions: 400 g a.s/ha
From the text: Spring colzas, Westar cultivar, resistant to glyphosate, were obtained using the method of BOULTER et al., 1990 (Plant Science, 70: 91-99), with the constructs pRPA-BL 488 (dH-At-PTO-aroA-nos), pRPA-BL 502 (CaMV/H-At-PTO- aroA-nos).

tobacco PBD6 plants = assay: Measurement of the glyphosate tolerance of transformed tobacco plants sown in the open; type: in vivo; conditions: untransformed tobacco PBD 6 controls, 0.8 kg/ha, 5-leaf stage, 30 days after the treatment
Method: The vector is introduced into the nononcogenic agrobacterium strain EHA 101 (Hood et al., 1987) carrying the cosmid pTVK 291 (Komari et al., 1986). The transformation method is based on the procedure of Horsh et al. (1985).
The regeneration of the tobacco PBD6 (source SEITA France) using foliar explants is carried out on a Murashige and Skoog (MS) basic medium containing 30 g/l of sucrose and […] of kanamycin. The foliar explants are removed from greenhouse- or in vitro-grown plants and transformed according to the foliar disc method (Science 1985, Vol. 227, p. 1229-1231) in three successive stages: the first comprises the induction of shoots on an MS medium supplemented with 30 g of sucrose containing 0.05 mg of naphthylacetic acid (ANA) and 2 mg/l of benzylaminopurine (BAP), for 15 days. The shoots formed during this stage are then developed by culturing on an MS medium supplemented with 30 g/l of sucrose, but not containing hormone, for 10 days. […]
The best plants obtained from the regeneration of transformed tobaccos are selected under a greenhouse after treating the plants, at the 5-leaf stage, […] […] Molecular hybridization analysis enabled the plants having integrated only one copy of the T-DNA to be determined. […]

SMILES: O=C(O)CNCP(=O)(O)O [glyphosate, N-(phosphonomethyl)glycine]
- effect of glyphosate treatment on nontransgenic plants [1]: destroys nontransgenic plants
- effect of glyphosate on control (untransformed) plants (phytotoxicity) (tobacco PBD6 plants): completely destroyed
